Assays:
[1] = tested on: interaction of Nurr1 and p65; test: Co-immunoprecipitation of Nurr1 and p65 in LPS-stimulated BV2 cells; format: cell-based, mouse; details: SB21 1 h prior to LPS (1 μg/ml), co-IP and Western blot
Experimental: (§1) FIGS. 12A-I show Nurr1 acting as an RXR-independent, GSK3β-dependent transrepressor for NF-κB. (FIG. 12A) Nurr1 is recruited to the TNFα-promoter in response to LPS. This recruitment is blocked by the GSK3β-specific inhibitor SB216763 (SB21). BV2 cells were pre-incubated with DMSO or 30 μM SB21 for 1 h followed by LPS stimulation for the indicated times before ChIP assay. […] (FIG. 12B) Nurr1-mediated repression is independent of DNA binding and RXR dimerization. RAW264.7 cells were transfected with wild type Nurr1, P-box mutant Nurr1C280A/E281A (CEAA) and I-box mutant Nurr1K555A/L556A/L227A (KLL). iNOS-promoter activity in RAW264.7 cells measured by luciferase-reporter assay. *, p<0.01 compared to control (Mock). (FIG. 12C) siRNA against Ubc9 abolishes Nurr1-mediated transrepression of iNOS-promoter activity. *, p<0.01 compared to Nurr1 with control siRNA. (FIG. 12D) K558 and K576 are the predominant SUMOylation sites of Nurr1. […] Equal loading was determined by re-blotting using anti-Nurr1 antibody. […] Nurr1 expression vector was transfected into RAW264.7 cells together with control siRNA or siRNA against GSK3β and iNOS-promoter activity was determined as described before. *, p<0.01 compared to Nurr1 with control siRNA. (FIG. 12I) S468A mutant of p65 abolishes Nurr1-mediated repression of iNOS-promoter activity. iNOS-promoter activity was determined as described before. […]

[2] = tested on: recruitment of Nurr1 to the TNFα-promoter; test: ChIP assay, Nurr1 recruitment to TNFα-promoter in BV2 cells; format: cell-based, mouse; details: 30 μM SB21 for 1 h followed by LPS
Experimental: as §1, with “(Mock).” for “(Mock). (FIG. 12C) siRNA against Ubc9 abolishes Nurr1-mediated transrepression of iNOS-promoter activity. *, p<0.01 compared to Nurr1 with control siRNA. (FIG. 12D) K558 and K576 are the predominant SUMOylation sites of Nurr1.”
(§2) ChIP assay. […] Quantitative PCR (qPCR) was performed with SYBR-GREEN PCR master Mix (ABI) or SYBR-GreenER (Invitrogen) and analyzed on a 7200 real time PCR system (ABI).

[3] = tested on: recruitment of Nurr1 at iNOS-promoter; test: ChIP assay, Nurr1 recruitment to iNOS-promoter in mouse primary astrocytes; format: cell-based; details: SB21 pre-incubation, IL1β stimulation
Experimental: FIGS. 15A-I show the CoREST complex requirement for Nurr1-mediated repression in astrocytes. (FIG. 15A) IL1β stimulation enhances physical association of Nurr1 and p65 in mouse primary astrocytes. Lysates of astrocytes stimulated with IL1β (10 ng/ml) for the indicated times were immunoprecipitated with anti-Nurr1 antibody and Western blots were developed with anti-p65 antibody. Equal loading was determined as described in FIG. 12F. (FIG. 15B) Recruitment of Nurr1 and p65 to iNOS-promoter in mouse primary astrocyte shown by ChIP assay. Data represent fold enrichment of iNOS-promoter precipitated with the indicated antibodies compared to control IgG as determined by qPCR. […] Mouse primary astrocytes were treated with SB21 as described in FIG. 12A. Data represent fold enrichment of iNOS-promoter precipitated with antibody against Nurr1 compared to control IgG as determined by qPCR. […] Data represent fold enrichment of iNOS-promoter precipitated with the indicated antibodies compared to control IgG as determined by qPCR. […] Cells were stimulated with 10 ng/ml IL1β for 6 h and mRNA expression of iNOS (FIG. 15F), CSF1 (FIG. 15G) and Ncf1 (FIG. 15H) was determined by qPCR. […]
as §2

[4] = tested on: ALS; details: ALS patients; cited from earlier work
[5] = target: T1, Nurr1 (NR4A2), endogenous protein in mouse cells (mouse, UniProt Q06219 1-598); test: co-IP from BV2 lysates, anti-Nurr1 IP, anti-p65 Western blot (FIG. 12F)
T1 construct: Endogenous protein, immunoprecipitated or blotted with anti-Nurr1 (E-20, Santa Cruz)
Experimental: Lysates of BV2 cells stimulated with LPS (1 μg/ml) for the indicated times were immunoprecipitated with anti-Nurr1 antibody and Western blots were developed with anti-p65 antibody. Equal loading was determined by re-blotting using anti-Nurr1 antibody. (FIG. 12G) SB21 impairs the binding of Nurr1 and p65 in a dose-dependent manner. BV2 cells were incubated with SB21 at the indicated concentrations for 1 h prior to stimulation with LPS (1 μg/ml). IP and Western blotting were performed as described in FIG. 12F. (FIG. 12H) siRNA against GSK3β abolishes Nurr1-mediated repression of iNOS-promoter activity. Nurr1 expression vector was transfected into RAW264.7 cells together with control siRNA or siRNA against GSK3β and iNOS-promoter activity was determined as described before. *, p<0.01 compared to Nurr1 with control siRNA. (FIG. 12I) S468A mutant of p65 abolishes Nurr1-mediated repression of iNOS-promoter activity. iNOS-promoter activity was determined as described before.
Co-immunoprecipitations and Western blotting. Hela cells or NIH3T3 cells were transfected using Lipofectamine 2000 reagent (Invitrogen) following manufacturer's protocol. Transfected cells were stimulated by 10 ng/ml recombinant human or mouse mIL1β (R & D system) for the indicated times prior to harvesting. […]

T1 sequence (Q06219 whole entry): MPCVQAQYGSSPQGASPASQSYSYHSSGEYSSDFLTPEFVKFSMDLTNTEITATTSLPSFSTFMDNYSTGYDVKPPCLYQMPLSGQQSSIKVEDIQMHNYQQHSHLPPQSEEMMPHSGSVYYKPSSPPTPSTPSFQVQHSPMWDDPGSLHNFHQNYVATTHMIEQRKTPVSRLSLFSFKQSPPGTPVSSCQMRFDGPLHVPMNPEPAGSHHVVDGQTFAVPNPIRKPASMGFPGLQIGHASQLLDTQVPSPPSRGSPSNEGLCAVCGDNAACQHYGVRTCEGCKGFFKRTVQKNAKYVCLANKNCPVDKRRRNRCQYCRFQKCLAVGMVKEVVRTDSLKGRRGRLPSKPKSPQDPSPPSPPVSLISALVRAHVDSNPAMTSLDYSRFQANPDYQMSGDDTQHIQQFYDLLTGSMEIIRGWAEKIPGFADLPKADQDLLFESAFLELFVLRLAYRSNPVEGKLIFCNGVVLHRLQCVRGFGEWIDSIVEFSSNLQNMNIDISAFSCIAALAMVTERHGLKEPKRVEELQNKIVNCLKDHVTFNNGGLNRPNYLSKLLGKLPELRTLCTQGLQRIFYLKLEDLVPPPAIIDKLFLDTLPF

Cn1cc(C2=C(c3ccc(Cl)cc3Cl)C(=O)NC2=O)c2ccccc21 [SB216763]
interaction (binding) of Nurr1 and p65 [1]: inhibited the interaction of Nurr1 and p65 in BV2 cells in a dose-dependent manner | interaction (binding) of Nurr1 and p65 ([1]; listed as SB21): impairs the binding of Nurr1 and p65 in a dose-dependent manner | recruitment of Nurr1 to the TNFα-promoter [2]: blocked | recruitment of Nurr1 to the TNFα-promoter ([2]; listed as SB21): prevented the recruitment of Nurr1 to the TNFα-promoter | recruitment of Nurr1 at iNOS-promoter [3]: Altered recruitment of Nurr1 to iNOS-promoter | recruitment of Nurr1 at iNOS-promoter ([3]; listed as SB21): decreases the recruitment of Nurr1 at iNOS-promoter

Nc1nc2ccc(OC(F)(F)F)cc2s1 [riluzole]
extension of the course of the disease [4]: 2 months

B1: NF-κB-p65, endogenous protein in mouse cells (other, UniProt Q04207 1-549, looked up)
chain: MDDLFPLIFPSEPAQASGPYVEIIEQPKQRGMRFRYKCEGRSAGSIPGERSTDTTKTHPTIKINGYTGPGTVRISLVTKDPPHRPHPHELVGKDCRDGYYEADLCPDRSIHSFQNLGIQCVKKRDLEQAISQRIQTNNNPFHVPIEEQRGDYDLNAVRLCFQVTVRDPAGRPLLLTPVLSHPIFDNRAPNTAELKICRVNRNSGSCLGGDEIFLLCDKVQKEDIEVYFTGPGWEARGSFSQADVHRQVAIVFRTPPYADPSLQAPVRVSMQLRRPSDRELSEPMEFQYLPDTDDRHRIEEKRKRTYETFKSIMKKSPFNGPTEPRPPTRRIAVPTRNSTSVPKPAPQPYTFPASLSTINFDEFSPMLLPSGQISNQALALAPSSAPVLAQTMVPSSAMVPLAQPPAPAPVLTPGPPQSLSAPVPKSTQAGEGTLSEALLHLQFDADEDLGALLGNSTDPGVFTDLASVDNSEFQQLLNQGVSMSHSTAEPMLMEYPEAITRLVTGSQRPPDPAPTPLGTSGLPNGLSGDEDFSSIADMDFSALLSQISS
notes: Endogenous protein, detected with anti-p65 (C-20, Santa Cruz)
binding result [5]: binds

From US20120003655A1, “IDENTIFICATION OF NEUROPROTECTIVE AGENTS USING PRO-INFLAMMATORY HUMAN GLIAL CELLS” (The Salk Institute for Biological Studies, priority 2008, published 2012)
